Test results reported in ChEMBL document CHEMBL1142021, “Aglycon specificity profiling of alpha-glucosidases using synthetic probes” (Bioorg Med Chem Lett, 2005).

Key:
[1] = organism: Homo sapiens; assay: Inhibition of Glucosidase 2 at 2 umol/mI
[2] = molecular target: T1, Alpha-glucosidase (Apis mellifera) (UniProt Q17058); assay: Inhibition of family 13 alpha-glucosidase isoform II from honey bee at 1 umol/mL
T1 sequence (whole entry): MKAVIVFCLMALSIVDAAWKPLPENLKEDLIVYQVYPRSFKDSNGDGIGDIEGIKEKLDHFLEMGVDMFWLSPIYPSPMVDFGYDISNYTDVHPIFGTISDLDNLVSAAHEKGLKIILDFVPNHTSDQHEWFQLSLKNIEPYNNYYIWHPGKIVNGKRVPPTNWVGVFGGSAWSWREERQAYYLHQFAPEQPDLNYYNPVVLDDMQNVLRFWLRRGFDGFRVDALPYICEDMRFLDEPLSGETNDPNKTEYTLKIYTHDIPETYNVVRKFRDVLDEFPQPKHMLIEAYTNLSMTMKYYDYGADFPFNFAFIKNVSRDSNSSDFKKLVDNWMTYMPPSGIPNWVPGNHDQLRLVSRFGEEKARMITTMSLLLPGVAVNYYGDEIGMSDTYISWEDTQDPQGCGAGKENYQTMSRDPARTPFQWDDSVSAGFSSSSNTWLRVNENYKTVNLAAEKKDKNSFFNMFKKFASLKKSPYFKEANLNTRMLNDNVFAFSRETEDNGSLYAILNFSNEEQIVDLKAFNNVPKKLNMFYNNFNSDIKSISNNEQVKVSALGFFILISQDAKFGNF

[3] = molecular target: T2, Beta-mannosidase (Homo sapiens) (UniProt O00462); assay: Inhibition of beta-Mannosidase at 5 umol/mL
T2 sequence (whole entry): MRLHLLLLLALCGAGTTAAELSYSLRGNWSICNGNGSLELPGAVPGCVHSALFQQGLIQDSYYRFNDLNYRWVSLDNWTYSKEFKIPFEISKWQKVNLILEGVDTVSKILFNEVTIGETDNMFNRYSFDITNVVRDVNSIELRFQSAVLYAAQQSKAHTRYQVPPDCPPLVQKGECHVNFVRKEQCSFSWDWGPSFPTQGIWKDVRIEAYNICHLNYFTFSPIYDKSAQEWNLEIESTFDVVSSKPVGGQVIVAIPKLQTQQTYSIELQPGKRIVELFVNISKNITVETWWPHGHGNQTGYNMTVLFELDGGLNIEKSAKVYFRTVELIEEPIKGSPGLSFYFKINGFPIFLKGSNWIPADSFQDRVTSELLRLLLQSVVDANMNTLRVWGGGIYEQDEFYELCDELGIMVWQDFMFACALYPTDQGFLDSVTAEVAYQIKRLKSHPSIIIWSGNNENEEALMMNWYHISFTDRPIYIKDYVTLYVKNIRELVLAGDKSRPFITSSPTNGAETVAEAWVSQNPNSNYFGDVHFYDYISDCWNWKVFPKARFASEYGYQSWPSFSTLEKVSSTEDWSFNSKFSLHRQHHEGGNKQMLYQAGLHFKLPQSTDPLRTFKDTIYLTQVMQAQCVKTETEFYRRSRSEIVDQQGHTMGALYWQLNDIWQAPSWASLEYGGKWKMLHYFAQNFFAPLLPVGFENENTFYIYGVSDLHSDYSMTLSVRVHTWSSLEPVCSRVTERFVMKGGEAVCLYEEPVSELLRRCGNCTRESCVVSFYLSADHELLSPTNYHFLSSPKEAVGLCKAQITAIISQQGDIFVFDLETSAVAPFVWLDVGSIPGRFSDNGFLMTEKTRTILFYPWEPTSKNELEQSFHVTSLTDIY

[4] = molecular target: T3, Lysosomal alpha-mannosidase (Homo sapiens) (UniProt O00754); assay: Inhibition of alpha-Mannosidase at 5 umol/mL
T3 sequence (whole entry): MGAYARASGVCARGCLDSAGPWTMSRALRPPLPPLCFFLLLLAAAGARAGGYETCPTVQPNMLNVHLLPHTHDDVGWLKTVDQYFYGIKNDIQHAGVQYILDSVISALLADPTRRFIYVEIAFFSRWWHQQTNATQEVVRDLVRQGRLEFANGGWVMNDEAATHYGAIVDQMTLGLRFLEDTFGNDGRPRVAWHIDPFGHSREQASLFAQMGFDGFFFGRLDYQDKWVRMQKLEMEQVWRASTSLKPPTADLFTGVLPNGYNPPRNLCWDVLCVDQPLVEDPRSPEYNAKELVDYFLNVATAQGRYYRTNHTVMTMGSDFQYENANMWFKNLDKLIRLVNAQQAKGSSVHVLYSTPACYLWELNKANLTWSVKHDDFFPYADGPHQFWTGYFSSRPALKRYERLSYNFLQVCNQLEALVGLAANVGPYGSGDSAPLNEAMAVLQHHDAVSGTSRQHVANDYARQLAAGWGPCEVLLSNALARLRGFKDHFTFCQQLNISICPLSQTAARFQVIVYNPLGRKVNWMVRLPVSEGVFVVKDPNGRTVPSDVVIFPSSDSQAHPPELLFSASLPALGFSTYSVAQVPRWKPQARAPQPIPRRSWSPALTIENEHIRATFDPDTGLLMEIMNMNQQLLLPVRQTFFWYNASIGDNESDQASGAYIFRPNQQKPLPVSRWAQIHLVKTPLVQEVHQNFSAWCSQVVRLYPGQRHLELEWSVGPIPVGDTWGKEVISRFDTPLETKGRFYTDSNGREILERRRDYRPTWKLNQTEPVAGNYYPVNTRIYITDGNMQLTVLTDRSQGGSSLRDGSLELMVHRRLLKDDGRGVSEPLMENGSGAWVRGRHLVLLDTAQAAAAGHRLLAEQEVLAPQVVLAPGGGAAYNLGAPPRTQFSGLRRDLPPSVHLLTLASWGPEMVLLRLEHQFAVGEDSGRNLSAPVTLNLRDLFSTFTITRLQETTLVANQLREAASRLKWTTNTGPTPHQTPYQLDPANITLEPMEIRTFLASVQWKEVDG

[5] = molecular target: T1, Alpha-glucosidase (Apis mellifera); assay: Inhibition of family 13 alpha-glucosidase isoform I from honey bee at 1 umol/mL

Structure (SMILES) | inhibition [1] | inhibition [2] | inhibition [3] | inhibition [4] | inhibition [5]
O=C(CO)NCC1OC(CO)C(O)C(O)C1O (stereo not given) | < 1% | 4.4% | < 1% | < 1% | < 52.3%
CC(=O)NCC1OC(CO)C(O)C(O)C1O (stereo not given) | < 1% | < 1% | < 1% | < 1% | 10.4%
CC(C)(C)C(=O)NCC1OC(CO)C(O)C(O)C1O (stereo not given) | < 1% | < 1% | < 1% | < 1% | < 1%
O=C(NCC1OC(CO)C(O)C(O)C1O)c1ccccc1 (stereo not given) | 5.9% | – | – | < 1% | 4.6%
O=C(CCO)NCC1OC(CO)C(O)C(O)C1O (stereo not given) | – | 2.7% | < 1% | < 1% | < 1%
O=C(CCCO)NCC1OC(CO)C(O)C(O)C1O (stereo not given) | < 1% | 3.6% | < 1% | – | –
O=C(CCCCCO)NCC1OC(CO)C(O)C(O)C1O (stereo not given) | < 1% | 4.4% | < 1% | < 1% | < 1%
O=C(CCCCO)NCC1OC(CO)C(O)C(O)C1O (stereo not given) | < 1% | 21.4% | < 1% | < 1% | 37.5%
